Each structure is given as a SMILES string. Read-outs that look alike come from different tables or passages of the source. Some results are limits rather than exact numbers.

The target in the assay is CAAX farnesyltransferase (Rattus norvegicus, UniProt Q02293+Q04631). In words: In vitro inhibition of CAAX farnesyltransferase. Also on record: purified to homogeneity from rat brain homogenates; from tissue; host or cells: rat brain; alternatively recombinant enzyme from a baculovirus expression system. Particulars: Table D. The class given is biochemical. Here is the method: All compounds were tested for in vitro inhibition of CAAX protein farnesyltransferase. […] Alternatively, recombinant CAAX protein farnesyltransferase was also used in this assay. […] Seventy-two hrs after infection, the cells were harvested and disrupted and the enzyme isolated by chromatography on Q-Sepharose.
After incubation for 30 min at 37° C., the amount of [3H]famesyl group transferred to p21H-ras was measured by precipitation with SDS/trichloroacetic acid, filtration onto nitrocellulose, and scintillation counting.
Structures of the compounds tested are reproduced below. Compound numbers also refer to example numbers above.

[1] abbreviates: diastereomer A, read-out: EC50 (μM) "A".
The mark [2] stands for this setting: diastereomer B, read-out: EC50 (μM) "B".

Chain of CAAX farnesyltransferase (Q02293 whole entry, one chain of several): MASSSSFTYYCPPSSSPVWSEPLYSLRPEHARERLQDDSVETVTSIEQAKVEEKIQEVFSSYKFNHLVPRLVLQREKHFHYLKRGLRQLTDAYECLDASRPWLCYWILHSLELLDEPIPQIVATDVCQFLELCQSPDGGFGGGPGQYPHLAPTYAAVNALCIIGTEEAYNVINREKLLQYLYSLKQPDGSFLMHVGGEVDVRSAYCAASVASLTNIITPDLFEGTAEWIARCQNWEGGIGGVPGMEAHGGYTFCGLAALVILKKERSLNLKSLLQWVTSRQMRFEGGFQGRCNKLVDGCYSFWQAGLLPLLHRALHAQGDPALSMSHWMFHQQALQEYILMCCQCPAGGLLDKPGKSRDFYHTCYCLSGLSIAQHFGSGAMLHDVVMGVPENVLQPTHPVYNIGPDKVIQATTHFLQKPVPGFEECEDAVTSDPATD

On to `CN(C(=O)[C@@H](N)CS)C1N=C(c2ccccc2)c2ccccc2N(Cc2ccc(-c3ccccc3-c3nnn[nH]3)cc2)C1=O` (stereo partly shown) [compound 98, N-[[3-[(2-amino-3-mercapto-1-oxopropyl)methylamino]-2,3-dihydro-2-oxo-5-phenyl-1H-1,4-benzodiazepin-1-yl]methyl]-4-(2-tetrazolylphenyl) benzene], for which the EC50 (as a rule, the midpoint of the concentration-response curve) runs as follows: under setting [1], 0.84 µM; under setting [2], 0.006 µM. As for `CN(C(=O)[C@@H](N)CS)C1N=C(c2ccccc2)c2cc(Cl)ccc2N(CC(=O)N[C@@H](Cc2ccccc2)C(=O)O)C1=O` (stereo partly shown) [compound 68], the EC50 runs as follows: under setting [1], 0.14 µM; under setting [2], 0.0016 µM.

Regarding `CN(C(=O)[C@@H](N)CS)C1N=C(c2ccccc2)c2ccccc2N(CC(=O)NCC(=O)O)C1=O` (stereo partly shown) [compound 53, N-[[3-[(2-amino-3-mercapto-1-oxopropyl)methylamino]-2,3-dihydro-2-oxo-5-phenyl-1H-1,4-benzodiazepin-1-yl]acetyl]-glycine], the EC50 reads like this: under setting [1], over 3 µM; under setting [2], 0.0004 µM. As to `CN(C(=O)C(N)CS)C1N=C(c2ccccc2)c2ccccc2N(Cc2cccc(C#N)c2)C1=O` (stereo not shown) [compound 93, N-[[3-[(2-amino-3-mercapto-1-oxopropyl)methylamino]-2,3-dihydro-2-oxo-5-phenyl-1H-1,4-benzodiazepin-1-yl]methyl]-3-benzonitrile], the EC50 under setting [1] amounted to 0.82 µM and the EC50 under setting [2] turned out to be 0.004 µM.

For `CN(C(=O)[C@@H](N)CS)C1N=C(c2ccccc2)c2ccccc2N(CC(=O)N[C@@H](Cc2ccc(-c3ccccc3)cc2)C(=O)O)C1=O` (stereo partly drawn) [compound 61, N-[[3-[(2-amino-3-mercapto-1-oxopropyl)methylamino]-2,3-dihydro-2-oxo-5-phenyl-1H-1,4-benzodiazepin-1-yl]acetyl]-(β-biphenyl)-L-alanine], the EC50 reads like this: under setting [1], 1.7 µM; under setting [2], 0.0035 µM.

On to `CN(C(=O)[C@@H](N)CS)C1N=C(c2ccccc2)c2ccccc2N(CC(=O)N[C@@H](CCc2ccccc2)C(=O)O)C1=O` (stereo partly drawn) [compound 59, N-[[3-[-(2-amino-3-mercapto-1-oxopropyl)methylamino]-2,3-dihydro-2-oxo-5-phenyl-1H-1,4-benzodiazepin-1-yl]acetyl]-L-homo-phenylalanine], for which the EC50 was determined as 1.1 µM under setting [1] and 0.0012 µM under setting [2]. With `CSCC[C@H](NC(=O)CN1C(=O)C(N(C)C(=O)[C@@H](N)CS)N=C(c2ccccc2)c2ccccc21)C(N)=O` (stereo partly drawn) [compound 33, N-[[3-[(2-amino-3-mercapto-1-oxopropyl)methylamino]-2,3-dihydro-2-oxo-5phenyl-1H-1,4-benzodiazepin-1-yl]acetyl]-L-methionine amide], the EC50 is 2.2 µM under setting [1] and 0.019 µM under setting [2]. For the compound `CSCC[C@@H](C(=O)O)N(C)C(=O)CN1C(=O)C(N(C)C(=O)[C@@H](N)CS)N=C(c2ccccc2)c2ccccc21` (stereo partly drawn) [compound 64, N-[[3-[(2-amino-3-mercapto-1-oxopropyl)methylamino]-2,3-dihydro-2-oxo-5-phenyl-1H-1,4-benzodiazepin-1-yl]acetyl]-(N-methyl)-L-methionine], the EC50 runs as follows: under setting [1], 0.26 µM; under setting [2], 0.002 µM. Turning to `CN(C(=O)[C@@H](N)CS)C1N=C(c2ccccc2)c2cc(Cl)ccc2N(Cc2cccc(C(F)(F)F)c2)C1=O` (stereo partly shown) [compound 103, N-[[3-[(2-amino-3-mercapto-1-oxopropyl)methylamino]-2,3-dihydro-2-oxo-5-phenyl-7-chloro-1H-1,4-benzodiazepin-1-yl]methyl]-3-trifluoromethylbenzene], the EC50 under setting [1] amounted to 0.0074 µM and the EC50 under setting [2] turned out to be 0.0074 µM. Consider `CSCC[C@H](NC(=O)CN1C(=O)C(N(C)C(=O)[C@@H](N)CS)N=C(c2ccccc2)c2ccccc21)c1nnn[nH]1` (stereo partly drawn) [compound 47, N-[[3-[(2-amino-3-mercapto-1-oxopropyl)methylamino]-2,3-dihydro-2-oxo-5-phenyl-1H-1,4-benzodiazepin-1-yl]acetyl]-L-methionine tetrazole], for which the concentration giving a half-maximal response (EC50) worked out at 0.044 µM (EC50 (μM) "A", diastereomer A) and 0.0046 µM (EC50 (μM) "B", diastereomer B). Regarding `CN(C(=O)[C@@H](N)CS)C1N=C(c2ccccc2)c2ccccc2N(CC(=O)N2CCC[C@H]2C(=O)O)C1=O` (stereo partly drawn) [compound 36, N-[[3-[(2-amino-3-mercapto-1-oxopropyl)methylamino]-2,3-dihydro-2-oxo-5-phenyl-1H-1,4-benzodiazepin-1-yl]acetyl]-L-proline], the EC50 was over 10 µM under setting [1] and 0.048 µM under setting [2].

`COC(=O)c1cccc(CN2C(=O)C(N(C)C(=O)[C@@H](N)CS)N=C(c3ccccc3)c3cc(Cl)ccc32)c1` (stereo partly shown) [compound 97, N-[[3-[(2-amino-3-mercapto-1-oxopropyl)methylamino]-2,3-dihydro-2-oxo-5-phenyl-7-chloro-1H-1,4-benzodiazepin-1-yl]methyl]-3-carboxymethylbenzene]: the EC50 under setting [2] was 0.0003 µM. Take `CSCC[C@H](NC(=O)CN1C(=O)C(N(C)C(=O)[C@@H](N)CS)N=C(c2ccccc2F)c2cc(Cl)ccc21)C(=O)O` (stereo partly drawn) [compound 82, N-[[3-[(2-amino-3-mercapto-1-oxopropyl)methylamino]-2,3-dihydro-2-oxo-5-(2'-fluorophenyl)-7-chloro-1H-1,4-benzodiazepin-1-yl]acetyl]-L-methionine]: the EC50 under setting [1] was 0.25 µM and the EC50 under setting [2] amounted to 0.001 µM.

For the compound `CN(C(=O)[C@@H](N)CS)C1N=C(c2ccccc2)c2ccccc2N(CC(=O)N(CC(=O)O)Cc2ccccc2)C1=O` (stereo partly shown) [compound 66], the half-maximal effective concentration (EC50) under setting [1] was determined as 2.4 µM and the EC50 under setting [2] is 0.0006 µM. For `CN(C(=O)[C@@H](N)CS)C1N=C(c2ccccc2)c2ccccc2N(CC(=O)N[C@@H](CCC(N)=O)C(=O)O)C1=O` (stereo partly drawn) [compound 52, N-[[3-[(2-amino-3-mercapto-1-oxopropyl)methylamino]-2,3-dihydro-2-oxo-5-phenyl-1H-1,4-benzodiazepin-1-yl]acetyl]-L-glutamine] the same measures were over 3 µM and 0.0018 µM. As for `CN(C(=O)C(N)CS)C1N=C(c2ccccc2)c2ccccc2N(Cc2cccc(-c3nnn[nH]3)c2)C1=O` (stereo not shown) [compound 96, N-[[3-[(2-amino-3-mercapto-1-oxopropyl)methylanino]-2,3-dihydro-2-oxo-5-phenyl-1H-1,4benzodiazepin-1-yl]methyl]-3-tetrazolylbenzene], the EC50 runs as follows: under setting [1], 0.23 µM; under setting [2], 0.0013 µM. The corresponding values for `CN(C(=O)[C@@H](N)CS)C1N=C(c2ccccc2)c2cc(Cl)ccc2N(CC(=O)N[C@H](C(=O)O)C2CCCCC2)C1=O` (stereo partly drawn) [compound 71, N-[[3-[(2-amino-3-mercapto-1-oxopropyl)methylamino]-2,3-dihydro-2-oxo-5-phenyl-7-chloro-1H-1,4-benzodiazepin-1-yl]acetyl]-L-(α-cyclohexyl)-glycine] are 0.1 µM and 0.0007 µM.

With `CSCC[C@H](NC(=O)CN1C(=O)C(N(C)C(=O)[C@@H](N)CS)C=C(c2ccccc2)c2cc(Cl)ccc21)C(=O)O` (stereo partly drawn) [compound 83, N-[[3-[(2-amino-3-mercapto-1-oxopropyl)methylamino]-2,3-dihydro-2-oxo-5-phenyl-7-chloro-1H-1,4-benzazepin-1-yl]acetyl]-L-methionine], under setting [2], the EC50 turned out to be 0.0007 µM. For `CSCC[C@H](NC(=O)CN1C(=O)C(N(C)C(=O)[C@@H](N)CS)C=C(c2ccccc2Cl)c2cc(Cl)ccc21)C(=O)O` (stereo partly shown) [compound 92], the EC50 is, setting by setting: under setting [1], 0.001 µM; under setting [2], 0.001 µM. In the case of `CSCC[C@H](NC(=O)CN1C(=O)C(N(C)C(=O)[C@@H](N)CS)C=C(c2ccccc2F)c2cc(Cl)ccc21)C(=O)O` (stereo partly drawn) [compound 80, N-[[3-[(2-amino-3-mercapto-1-oxopropyl)methylamino]-2,3-dihydro-2-oxo-5-(2'-fluorophenyl)-7-chloro-1H-1,4-benzazepin-1-yl]acetyl]-L-methionine], the EC50 is, setting by setting: under setting [1], 0.0003 µM; under setting [2], 0.0003 µM. `Cc1cccc(CN2C(=O)C(N(C)C(=O)[C@@H](N)CS)N=C(c3ccccc3)c3cc(Cl)ccc32)c1` (stereo partly shown) [compound 102, N-[[3-[(2-amino-3-mercapto-1-oxopropyl)methylamino]-2,3-dihydro-2-oxo-5-phenyl-7-chloro-1H-1,4-benzodiazepin-1-yl]methyl]-3-methylbenzene]: the EC50 stood at 0.11 µM under setting [1] and 0.038 µM under setting [2].

With `CN(C(=O)[C@@H](N)CS)C1N=C(c2ccccc2)c2cc(Cl)ccc2N(CC(=O)N[C@H](C(N)=O)C2CCCCC2)C1=O` (stereo partly drawn) [compound 72, N-[[3-[(2-amino-3-mercapto-1-oxopropyl)methylamino]-2,3-dihydro-2-oxo-5-phenyl-7-chloro-1H-1,4-benzodiazepin-1-yl]acetyl]-L-(α-cyclohexyl)-glycine amide], the EC50 under setting [1] is 0.6 µM and the 50% effective concentration (EC50) under setting [2] was 0.0017 µM. As for `CCN[C@@H](CS)C(=O)N(C)C1N=C(c2ccccc2)c2ccccc2N(CC(=O)N[C@@H](CCSC)C(=O)O)C1=O` (stereo partly drawn) [compound 42, N-[[3-[(2-ethylamino-3-mercapto-1-oxopropyl)methylamino]-2,3-dihydro-2-oxo-5-phenyl-1H-1,4-benzodiazepin-1-yl]acetyl]-L-methionine], the EC50 under setting [1] is 0.58 µM and the EC50 under setting [2] stood at 0.018 µM. Consider `CN(C(=O)[C@@H](N)CS)C1N=C(c2ccccc2)c2cc(Cl)ccc2N(CC(=O)N[C@@H](Cc2ccc(F)cc2)C(=O)O)C1=O` (stereo partly drawn) [compound 70, N-[[3-[(2-amino-3-mercapto-1-oxopropyl)methylamino]-2,3-dihydro-2-oxo-5-phenyl-7-chloro-1H-1,4-benzodiazepin-1-yl]acetyl]-L-4-fluoro-phenylalanine], for which the EC50 under setting [1] stood at 0.13 µM and the EC50 under setting [2] is 0.0008 µM.

These data come from patent publication US5843941A, “Ras farnesyl transferase inhibitors” (Genentech, Inc., priority 1994, dated 1998).
